# Experimental data published in the supplement of paper PMC10307832.
# What was measured:
# Assay in all cases: relative viability (nuclei count vs DMSO), 5 days (fraction); higher = more cells survive
# [1] = tested on: A-427
# In short: (§1)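 Cells from lung cancer lines were seeded into 1536-well plates and, one day later, dosed by pin tool. Treatments were either a single drug or a fixed dose of an anchor drug with five library-drug doses (not always all listed) in √10 steps. After 5 days, nuclei were stained in a one-step fixation (final 0.05% Triton X-100, 1% formaldehyde, 1 ug/ml Hoechst) and counted on 4× images, and relative viability is the treated-to-vehicle nuclei ratio, as the median of duplicate plates.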
# [2] = tested on: ChaGo-K-1
# In short: as §1
# [3] = tested on: HCC-366
# In short: as §1
# [4] = tested on: NCI-H23
# In short: as §1
# [5] = tested on: NCI-H2228
# In short: as §1
# [6] = tested on: HCC-78
# In short: as §1
# [7] = tested on: EMC-BAC-2
# In short: as §1
# [8] = tested on: NCI-H1793
# In short: as §1
# [9] = tested on: NCI-H1993
# In short: as §1
# [10] = tested on: NCI-H1734
# In short: as §1
# [11] = tested on: NCI-H2405
# In short: as §1
# [12] = tested on: NCI-H2126
# In short: as §1
# [13] = tested on: NCI-H2023
# In short: as §1
# [14] = tested on: HCC-15
# In short: as §1
# [15] = tested on: SK-LU-1
# In short: as §1
# [16] = tested on: HARA
# In short: as §1
# [17] = tested on: LC-2-ad
# In short: as §1
# [18] = tested on: NCI-H2009
# In short: as §1
# [19] = tested on: UMC-11
# In short: as §1
# [20] = tested on: ABC-1
# In short: as §1
# [21] = tested on: NCI-H838
# In short: as §1
# [22] = tested on: NCI-H1944
# In short: as §1
# [23] = tested on: COR-L23
# In short: as §1
smiles,measurement,setting,value
CC1(C)CCC(c2ccc(Cl)cc2)=C(CN2CCN(c3ccc(C(=O)NS(=O)(=O)c4ccc(N[C@H](CCN5CCOCC5)CSc5ccccc5)c(S(=O)(=O)C(F)(F)F)c4)cc3)CC2)C1 [Navitoclax] + O=C(c1cc(Cc2n[nH]c(=O)c3ccccc23)ccc1F)N1CCN(C(=O)C2CC2)CC1 [Olaparib] (partner 8 µM),relative viability,[1]; first compound 0.005 µM,0.71
same,relative viability,[1]; first compound 0.01581 µM,0.682
same,relative viability,[1]; first compound 0.05 µM,0.782
same,relative viability,[1]; first compound 0.1581 µM,0.808
same,relative viability,[1]; first compound 0.5 µM,0.737
same,relative viability,[2]; first compound 0.005 µM,0.445
same,relative viability,[2]; first compound 0.01581 µM,0.472
same,relative viability,[2]; first compound 0.05 µM,0.28
same,relative viability,[2]; first compound 0.1581 µM,0.453
same,relative viability,[2]; first compound 0.5 µM,0.461
same,relative viability,[3]; first compound 0.005 µM,0.362
same,relative viability,[3]; first compound 0.01581 µM,0.43
same,relative viability,[3]; first compound 0.1581 µM,0.404
same,relative viability,[3]; first compound 0.5 µM,0.399
same,relative viability,[4]; first compound 0.005 µM,0.328
same,relative viability,[4]; first compound 0.01581 µM,0.301
same,relative viability,[4]; first compound 0.05 µM,0.272
same,relative viability,[4]; first compound 0.1581 µM,0.291
same,relative viability,[4]; first compound 0.5 µM,0.343
same,relative viability,[5]; first compound 0.005 µM,0.941
same,relative viability,[5]; first compound 0.01581 µM,0.754
same,relative viability,[5]; first compound 0.1581 µM,0.758
same,relative viability,[5]; first compound 0.5 µM,0.638
same,relative viability,[6]; first compound 0.005 µM,0.844
same,relative viability,[6]; first compound 0.01581 µM,0.776
same,relative viability,[6]; first compound 0.05 µM,0.696
same,relative viability,[6]; first compound 0.1581 µM,0.925
same,relative viability,[6]; first compound 0.5 µM,0.863
same,relative viability,[7]; first compound 0.005 µM,0.461
same,relative viability,[7]; first compound 0.01581 µM,0.483
same,relative viability,[7]; first compound 0.05 µM,0.456
same,relative viability,[7]; first compound 0.1581 µM,0.434
same,relative viability,[7]; first compound 0.5 µM,0.452
same,relative viability,[8]; first compound 0.005 µM,0.903
same,relative viability,[8]; first compound 0.01581 µM,1.05
same,relative viability,[8]; first compound 0.1581 µM,0.885
same,relative viability,[8]; first compound 0.5 µM,0.684
same,relative viability,[9]; first compound 0.005 µM,1.09
same,relative viability,[9]; first compound 0.01581 µM,1.32
same,relative viability,[9]; first compound 0.05 µM,0.936
same,relative viability,[9]; first compound 0.1581 µM,0.984
same,relative viability,[9]; first compound 0.5 µM,1.02
same,relative viability,[10]; first compound 0.005 µM,0.626
same,relative viability,[10]; first compound 0.01581 µM,0.67
same,relative viability,[10]; first compound 0.1581 µM,0.534
same,relative viability,[10]; first compound 0.5 µM,0.535
same,relative viability,[11]; first compound 0.005 µM,0.803
same,relative viability,[11]; first compound 0.01581 µM,0.881
same,relative viability,[11]; first compound 0.05 µM,0.953
same,relative viability,[11]; first compound 0.1581 µM,0.801
same,relative viability,[11]; first compound 0.5 µM,0.739
same,relative viability,[12]; first compound 0.005 µM,0.912
same,relative viability,[12]; first compound 0.01581 µM,0.994
same,relative viability,[12]; first compound 0.05 µM,0.847
same,relative viability,[12]; first compound 0.1581 µM,0.86
same,relative viability,[12]; first compound 0.5 µM,0.9
same,relative viability,[13]; first compound 0.005 µM,0.445
same,relative viability,[13]; first compound 0.01581 µM,0.47
same,relative viability,[13]; first compound 0.05 µM,0.534
same,relative viability,[13]; first compound 0.1581 µM,0.442
same,relative viability,[13]; first compound 0.5 µM,0.496
same,relative viability,[14]; first compound 0.005 µM,0.716
same,relative viability,[14]; first compound 0.01581 µM,0.787
same,relative viability,[14]; first compound 0.05 µM,0.626
same,relative viability,[14]; first compound 0.1581 µM,0.67
same,relative viability,[14]; first compound 0.5 µM,0.778
same,relative viability,[15]; first compound 0.005 µM,0.613
same,relative viability,[15]; first compound 0.01581 µM,0.474
same,relative viability,[15]; first compound 0.05 µM,0.329
same,relative viability,[15]; first compound 0.1581 µM,0.424
same,relative viability,[15]; first compound 0.5 µM,0.338
same,relative viability,[16]; first compound 0.005 µM,0.763
same,relative viability,[16]; first compound 0.01581 µM,0.752
same,relative viability,[16]; first compound 0.05 µM,0.579
same,relative viability,[16]; first compound 0.1581 µM,0.789
same,relative viability,[16]; first compound 0.5 µM,0.875
same,relative viability,[17]; first compound 0.005 µM,0.729
same,relative viability,[17]; first compound 0.01581 µM,0.744
same,relative viability,[17]; first compound 0.05 µM,0.654
same,relative viability,[17]; first compound 0.1581 µM,0.698
same,relative viability,[17]; first compound 0.5 µM,0.701
same,relative viability,[18]; first compound 0.005 µM,0.698
same,relative viability,[18]; first compound 0.01581 µM,0.692
same,relative viability,[18]; first compound 0.05 µM,0.691
same,relative viability,[18]; first compound 0.1581 µM,0.6
same,relative viability,[18]; first compound 0.5 µM,0.689
same,relative viability,[19]; first compound 0.005 µM,0.89
same,relative viability,[19]; first compound 0.01581 µM,0.361
same,relative viability,[19]; first compound 0.05 µM,0.346
same,relative viability,[19]; first compound 0.1581 µM,0.317
same,relative viability,[19]; first compound 0.5 µM,0.266
same,relative viability,[20]; first compound 0.005 µM,0.909
same,relative viability,[20]; first compound 0.01581 µM,0.783
same,relative viability,[20]; first compound 0.05 µM,0.838
same,relative viability,[20]; first compound 0.1581 µM,0.859
same,relative viability,[20]; first compound 0.5 µM,0.776
same,relative viability,[21]; first compound 0.005 µM,0.775
same,relative viability,[21]; first compound 0.01581 µM,0.818
same,relative viability,[21]; first compound 0.05 µM,0.834
same,relative viability,[21]; first compound 0.1581 µM,0.775
same,relative viability,[21]; first compound 0.5 µM,0.768
same,relative viability,[22]; first compound 0.005 µM,0.383
same,relative viability,[22]; first compound 0.01581 µM,0.403
same,relative viability,[22]; first compound 0.1581 µM,0.412
same,relative viability,[22]; first compound 0.5 µM,0.401
same,relative viability,[23]; first compound 0.005 µM,0.374
same,relative viability,[23]; first compound 0.01581 µM,0.405
same,relative viability,[23]; first compound 0.05 µM,0.375
same,relative viability,[23]; first compound 0.1581 µM,0.367
same,relative viability,[23]; first compound 0.5 µM,0.398
